Experiments:
CD68+ cells = assay: Immunohistochemistry of macrophages/activated microglia in ischemic brain; type: in vivo; conditions: male mice, 3 nmol/g, 24 h of insult; versus TMyc
Description: (§1) The brains of animals injected one hour af ter the initiation of the photothrombotic damage with vehicle (saline), TMyc or TT1Ct (3 nmol/g) were process ed and cryoprote cted as before indicated. The duration of damage before sa cri f i ce was 5 h (male and female) or 24 h (male).
(§2) Coronal froze n se ctions were incubated with blocking solution as des cribe d in flota tion for 1 h at room temperature and then overnight with prima ry antibodies diluted in 4% goat se rum and 0.3% Triton X-100 in PBS at 4°C. After was hing, slides were incubated 1 h with Alexa Fluor 546- conjugated goat anti-rabbit or AlexaFluor 647- conjugated goat anti-mouse se condary antibodies to visua liz e the prima ry antibodies and DAPI (5 μg/ml). Only for Iba1 sta ining, blocking solution was 2.5% BS A, 5% goat se rum, 0.5% Triton X-100 in PBS, and se ctions were incubated with prima ry antibody 24 h at RT follow ed by was hing and Alexa Fluor 546-conjugated goat anti-rabbit and DAPI incubation for 1 h. Sections were then was hed in PBS, mounted on slides , dried for 15 min at 37 °C on a hot plate, or air dried overnight and then cover slipped with DPX or Prolong Diamond. Ce ll Obs erve d images were obtained with Zeiss microscope Observe r.Z1 using a 10x Plan-Apochromatic objective. […]

[1] = Beam walking test after photothrombotic ischemia; type: in vivo, mice; conditions: male mice
[2] = Infarct volume after photothrombotic permanent ischemia; type: in vivo, mice; conditions: 24 h; for Decrease of infarct volume: versus TMyc, 3 nmol/g i.v. 1 h after damage
Description: Permanent focal ischemia was induced in cerebral cortex of adult male and female mice by microvascular photothrombosis as described with modifications. Brain injury involves vascular endothelium damage and platelet activation, followed by microvascular thrombotic occlusion of a particular region selected for illumination using a stereotaxic frame. Coordinates were +0.2 AP, +2 ML relative to Bregma and damaged area corresponded to primary motor and somatosensory cortex. For neuroprotection, a single dose (3 nmol/g) of peptides TMyc or TT1Ct (see below) was administered 1 h after damage initiation. Further details of the procedures, including measurement of infarct volume and evaluation of motor coordination and balance, are detailed as Supplementary material.
Antibodies, chemica ls and recombinant proteins, cell-penetrating peptides , prime rs , commercial as says , experimental models, recombinant DNAs and software ar e des cribe d in the Table S1, included as Supplementary material.
Animal procedures were performed follow ing Europea n Union Directive 2010/63/ EU and were approved by the CS I C and Comunidad de Ma drid (Ref PROEX 276.6/20) ethics committees.
Hous ing facilities were approved by Comunidad de Ma drid (#ES 280790000188) and conform to official regulations. Animals had sta ndard health and immune sta tus and were looked af ter by profes sional caretake rs daily. Ma l e and female mice were kept in groups of up to five in sta ndard IVC cage s while 1–2 pregnant rats occupied sta ndard cage s, always containing bedding and nes ting materials. Animals were under controlled lighting conditions (12 h light cycles ), relative humidity and temperature. Irradiated food and water were provided ad libitum.
We trie d to minimiz e animal suffering and reduce the number of sa cri f i ced animals .
Mi c e model of isc he mia by microv ascular photothr ombosis to study in vivo excitotoxicity This model of permanent focal isc hemia mimics embolic or thrombotic occlus ion of sm a ll ar ter ie s, which is freque ntly found in human stroke, and caus es a focal brain damage with histological and MR I corre lations to human patterns. The procedure was as previously des cribe d with some modific ations . Ma l e and female Ba lb/c OlaHsd mice (23–31 g; 10–16 weeks of age; Envigo Rms , Spain S.L.) were allowed to acc limatize to our facilities for at least 1 week af ter delivery, before isc hemic induction. They were kept with the sa m e cage mates, and daily examined to chec k their health sta tus . Mi c e were anes thetized with isoflurane (5% for induction, 2% for maintenance in oxygen; Abbot Labora tories , Ma drid, Spain) and then placed in a ste reotaxic frame (Naris hige Group, Tokyo, Ja pan). Body temperature was maintained at 36–37°C using a se l f-regulating heating blanket (Cibertec, Ma drid, Spain). A midline sc al p incision was made, the skull was expos ed, and both Bregma and Lambda points were identifie d.
A cold- light (Sc hott KL 2500 LCD; Schott Glas s, Ma inz, Germany) with a fibre optic bundle of 1.5 mm in diameter was centred using a micromanipula tor on the right side , at 0.2 mm anterior and 2.0 mm lateral (+0.2 AP, +2 ML ) relative to Bregma. […] Five minutes later, the brain was illumina ted (600 lms, 3,000 K) through the intact […]
skull for 10 min. Br ain injury encompas se s damage to vas cular endothelium, platelet activation, and subs equent microvascula r thrombotic occlus ion of the irradiate d region. The ar eas underneath this ste reotaxic position that result irradiate d ar e the prima ry motor cortex and the prima ry soma tos ens ory cortex (hindlimb and forelimb). Once completed surgery, the incision was sutured, and mice were allowed to recover. […]

Iba1 = assay: Immunohistochemistry of microglia in ischemic brain; type: in vivo; conditions: male mice, 3 nmol/g, 24 h of insult; versus TMyc
Description: as §1, §2

## Ac-YGRKKRRQRRRPPFVLFHKIPLDG-NH2 [TT1Ct]
CD68+ cells
  Effect on CD68+ cells in the infarct and surrounding tissues: greatly decreased
[1]; TT1Ct versus TMyc slips
  Recovery in beam walking test: 49%
[1]; contralateral hind paw slips, beam walking 24 h after insult, 3 nmol/g i.v. 1 h after damage, mean ± SEM, n = 10-12
  Number of slips: 5 ± 1
[2]; female mice
  Decrease of infarct volume: 42%
[2]; male + female mice, 3 nmol/g i.v. 1 h after damage induction, TTC, relative to hemisphere volume, mean ± SEM, n = 19, n = 20
  Infarct volume (%): 10 ± 1%
[2]; male mice
  Decrease of infarct volume: 45%
Iba1
  Effect on Iba1 in reactive microglia: limited Iba1 upregulation
